Experimental data reported in PubChem BioAssay (NCI).
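Test compounds were applied to cells in 96-well plates for 48 hours at 5 doses. GI50 is the concentration that inhibits growth by half. TGI marks complete inhibition of growth.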

How the values were obtained:
Assay in all cases: NCI-60 cell line screen, 48 h
786-0 renal = test system: 786-0 renal
A498 renal = test system: A498 renal
A549 NSCLC = test system: A549 NSCLC
ACHN renal = test system: ACHN renal
BT-549 breast = test system: BT-549 breast
CAKI-1 renal = test system: CAKI-1 renal
CCRF-CEM leukemia = test system: CCRF-CEM leukemia
COLO 205 colon = test system: COLO 205 colon
DU-145 prostate = test system: DU-145 prostate
EKVX NSCLC = test system: EKVX NSCLC
HCC-2998 colon = test system: HCC-2998 colon
HCT-116 colon = test system: HCT-116 colon
HCT-15 colon = test system: HCT-15 colon
HL-60(TB) leukemia = test system: HL-60(TB) leukemia
HOP-62 NSCLC = test system: HOP-62 NSCLC
HOP-92 NSCLC = test system: HOP-92 NSCLC
HS 578T breast = test system: HS 578T breast
HT29 colon = test system: HT29 colon
IGROV1 ovarian = test system: IGROV1 ovarian
K-562 leukemia = test system: K-562 leukemia
KM12 colon = test system: KM12 colon
LOX IMVI melanoma = test system: LOX IMVI melanoma
M14 melanoma = test system: M14 melanoma
MALME-3M melanoma = test system: MALME-3M melanoma
MCF7 breast = test system: MCF7 breast
MDA-MB-231 breast = test system: MDA-MB-231 breast
MDA-MB-435 = test system: MDA-MB-435
MOLT-4 leukemia = test system: MOLT-4 leukemia
NCI-H226 lung = test system: NCI-H226 lung
NCI-H23 lung = test system: NCI-H23 lung
NCI-H460 lung = test system: NCI-H460 lung
NCI-H522 lung = test system: NCI-H522 lung
NCI/ADR-RES ovarian = test system: NCI/ADR-RES ovarian
OVCAR-3 ovarian = test system: OVCAR-3 ovarian
OVCAR-4 ovarian = test system: OVCAR-4 ovarian
OVCAR-5 ovarian = test system: OVCAR-5 ovarian
OVCAR-8 ovarian = test system: OVCAR-8 ovarian
PC-3 prostate = test system: PC-3 prostate
RPMI-8226 leukemia = test system: RPMI-8226 leukemia
RXF 393 renal = test system: RXF 393 renal
SF-268 CNS = test system: SF-268 CNS
SF-295 CNS = test system: SF-295 CNS
SF-539 CNS = test system: SF-539 CNS
SK-MEL-2 melanoma = test system: SK-MEL-2 melanoma
SK-MEL-28 melanoma = test system: SK-MEL-28 melanoma
SK-MEL-5 melanoma = test system: SK-MEL-5 melanoma
SK-OV-3 ovarian = test system: SK-OV-3 ovarian
SN12C renal = test system: SN12C renal
SNB-19 CNS = test system: SNB-19 CNS
SNB-75 CNS = test system: SNB-75 CNS
SR leukemia = test system: SR leukemia
SW-620 colon = test system: SW-620 colon
T-47D breast = test system: T-47D breast
TK-10 renal = test system: TK-10 renal
U251 CNS = test system: U251 CNS
UACC-257 melanoma = test system: UACC-257 melanoma
UACC-62 melanoma = test system: UACC-62 melanoma
UO-31 renal = test system: UO-31 renal

Clc1ccc(C2c3ccccc3-c3nccn32)c(Cl)c1 (stereo unspecified)
GI50 (786-0 renal): 19.5 µM
TGI (786-0 renal): > 55.2 µM
GI50 (A498 renal): 12.2 µM
TGI (A498 renal): 24.6 µM
GI50 (A549 NSCLC): 13.4 µM
TGI (A549 NSCLC): 36.7 µM
GI50 (ACHN renal): 12.3 µM
TGI (ACHN renal): 26.9 µM
GI50 (BT-549 breast): 9.01 µM
TGI (BT-549 breast): 21.7 µM
GI50 (CAKI-1 renal): 1.98 µM
TGI (CAKI-1 renal): 19 µM
GI50 (CCRF-CEM leukemia): 2.77 µM
TGI (CCRF-CEM leukemia): > 44.1 µM
GI50 (COLO 205 colon): 13.5 µM
TGI (COLO 205 colon): 28 µM
GI50 (DU-145 prostate): 13.6 µM
TGI (DU-145 prostate): 26.4 µM
GI50 (EKVX NSCLC): 5.28 µM
TGI (EKVX NSCLC): 19.3 µM
GI50 (HCC-2998 colon): 13.9 µM
TGI (HCC-2998 colon): 28.1 µM
GI50 (HCT-116 colon): 9.7 µM
TGI (HCT-116 colon): 39.2 µM
GI50 (HCT-15 colon): 11.5 µM
TGI (HCT-15 colon): 24.4 µM
GI50 (HL-60(TB) leukemia): 2.25 µM
TGI (HL-60(TB) leukemia): 18.4 µM
GI50 (HOP-62 NSCLC): 16.9 µM
TGI (HOP-62 NSCLC): 44.2 µM
GI50 (HOP-92 NSCLC): 9.94 µM
TGI (HOP-92 NSCLC): 25.7 µM
GI50 (HS 578T breast): 13.6 µM
TGI (HS 578T breast): 35.5 µM
GI50 (HT29 colon): 9.87 µM
TGI (HT29 colon): 24.6 µM
GI50 (IGROV1 ovarian): 11.7 µM
TGI (IGROV1 ovarian): > 47.9 µM
GI50 (K-562 leukemia): 1.37 µM
TGI (K-562 leukemia): > 40.5 µM
GI50 (KM12 colon): 13.2 µM
TGI (KM12 colon): 26.6 µM
GI50 (LOX IMVI melanoma): 11.2 µM
TGI (LOX IMVI melanoma): 23.9 µM
GI50 (M14 melanoma): 21.2 µM
TGI (M14 melanoma): 62.4 µM
GI50 (MALME-3M melanoma): 10.6 µM
TGI (MALME-3M melanoma): 23.1 µM
GI50 (MCF7 breast): 12.5 µM
TGI (MCF7 breast): 25.7 µM
GI50 (MDA-MB-231 breast): 11.5 µM
TGI (MDA-MB-231 breast): 26 µM
GI50 (MDA-MB-435): 10.6 µM
TGI (MDA-MB-435): 22.5 µM
GI50 (MOLT-4 leukemia): 2.8 µM
TGI (MOLT-4 leukemia): 20.5 µM
GI50 (NCI-H226 lung): 6.92 µM
TGI (NCI-H226 lung): 26 µM
GI50 (NCI-H23 lung): 6.56 µM
TGI (NCI-H23 lung): 35.5 µM
GI50 (NCI-H460 lung): 12.2 µM
TGI (NCI-H460 lung): 24.6 µM
GI50 (NCI-H522 lung): 11.4 µM
TGI (NCI-H522 lung): 31.7 µM
GI50 (NCI/ADR-RES ovarian): 6.57 µM
TGI (NCI/ADR-RES ovarian): 24 µM
GI50 (OVCAR-3 ovarian): 11 µM
TGI (OVCAR-3 ovarian): 22.9 µM
GI50 (OVCAR-4 ovarian): 3.6 µM
TGI (OVCAR-4 ovarian): 17.4 µM
GI50 (OVCAR-5 ovarian): 14.8 µM
TGI (OVCAR-5 ovarian): 30.1 µM
GI50 (OVCAR-8 ovarian): 12.6 µM
TGI (OVCAR-8 ovarian): 32.5 µM
GI50 (PC-3 prostate): 11.6 µM
TGI (PC-3 prostate): 31.3 µM
GI50 (RPMI-8226 leukemia): 0.941 µM
TGI (RPMI-8226 leukemia): 8.48 µM
GI50 (RXF 393 renal): 14.6 µM
TGI (RXF 393 renal): 30.6 µM
GI50 (SF-268 CNS): 14 µM
TGI (SF-268 CNS): 27.4 µM
GI50 (SF-295 CNS): 4.52 µM
TGI (SF-295 CNS): 18.3 µM
GI50 (SF-539 CNS): 15 µM
TGI (SF-539 CNS): 28.5 µM
GI50 (SK-MEL-2 melanoma): 11.3 µM
TGI (SK-MEL-2 melanoma): 26 µM
GI50 (SK-MEL-28 melanoma): 13.6 µM
TGI (SK-MEL-28 melanoma): 26.5 µM
GI50 (SK-MEL-5 melanoma): 6.3 µM
TGI (SK-MEL-5 melanoma): 18.8 µM
GI50 (SK-OV-3 ovarian): 14.7 µM
TGI (SK-OV-3 ovarian): 33.2 µM
GI50 (SN12C renal): 13.8 µM
TGI (SN12C renal): 30.6 µM
GI50 (SNB-19 CNS): 13.2 µM
TGI (SNB-19 CNS): 27.4 µM
GI50 (SNB-75 CNS): 11.2 µM
TGI (SNB-75 CNS): 23.7 µM
GI50 (SR leukemia): 2.34 µM
TGI (SR leukemia): 30 µM
GI50 (SW-620 colon): 13.6 µM
TGI (SW-620 colon): 26.5 µM
GI50 (T-47D breast): 5.13 µM
TGI (T-47D breast): 32.8 µM
GI50 (TK-10 renal): 13.7 µM
TGI (TK-10 renal): 28.6 µM
GI50 (U251 CNS): 13.4 µM
TGI (U251 CNS): 26.2 µM
GI50 (UACC-257 melanoma): 12.5 µM
TGI (UACC-257 melanoma): 28.9 µM
GI50 (UACC-62 melanoma): 9.66 µM
TGI (UACC-62 melanoma): 23 µM
GI50 (UO-31 renal): 7.37 µM
TGI (UO-31 renal): 23.3 µM
